Values joined by “and” are separate entries in the source; they are usually repeats but may differ in a detail not shown here. Identical values can stand only once. Like-named read-outs stand apart in the source and are kept apart here.
Key:
[1] = tested on: S. aureus strains BK18 and B9377; test: Generation and confirmation of antibiotic persisters (CFU over time); assay type: cell-based, Staphylococcus aureus; conditions: for CFU/mL, generation of persisters / CFU/mL, confirmation of persisters (regrown, re-exposed): Vancomycin 100X; for CFU/mL, generation of persisters: Daptomycin 50X MIC; for CFU/mL, confirmation of persisters (regrown, re-exposed): Daptomycin 50×; for Drop in CFU at the end of 4 h treatment: generation of persisters
Experimental: (§1) Persisters of S. aureus BK18 and B9377 and S. epidermidis strain B9470 were generated as per protocol described by Lechner, et al (Staphylococcus aureus persisters tolerant to bactericidal antibiotics. Lechner, et al. (2012) J Mol Microbiol Biotechnol; 22(4):235-44). Briefly, colonies were suspended in LB broth and allowed to grow at 37° C., 200 rpm for ˜2 hours. The cultures were pelleted, resuspended in MHB and OD600 was adjusted to 0.5 to 1.0 OD (˜2 to 5×10^8 CFU/mL). […] The test tubes were incubated at 37° C., 200 rpm, and 250 μL was sampled out at 4, 8, and 24 hr time points. This aliquot was pelleted, washed in saline and resuspended in equal volume of saline, diluted and plated on LB agar. Rapid decrease in CFUs, followed by rather stable values for up to 24 hrs, indicated the presence of Daptomycin/Vancomycin tolerant persisters.
(§2) After sampling for P128 and antibiotic activity, the rest of the sample was pelleted, washed in saline and resuspended into fresh media (LB). Allowed to grow at 37° C., 200 rpm until it reaches 1 OD and then the same steps followed as done for generation of persisters. A biphasic growth curve similar to that obtained during generation of persisters would indicate the tolerance to be phenotypic and not genotypic.

[2] = tested on: S. epidermidis strain B9470; test: as above; assay type: cell-based, Staphylococcus epidermidis; conditions: for CFU/mL, generation of persisters: Vancomycin 50X, Daptomycin 10X MIC; for CFU/mL, confirmation of persisters (regrown, re-exposed): head prints Vancomycin 100X, Daptomycin 50×
Experimental: as §1, §2

[3] = tested on: MRSA MW2 biofilm on catheter; test: In vivo biofilm on catheter implanted subcutaneously in neutropenic mice; conditions: Table VB2: Daptomycin 12.5 mg/kg sc 1 dose per day for 3 days; P128 800 μg per dose sc 3 doses/day for 3 days; or both
Experimental: Eight-nine week old female BALB/c mice 25 g were rendered neutropenic with cyclophosphamide and were operated under ketamine-xylazine anesthesia. A 1-cm incision was made in the dorsal neck surface by aseptic technique and subcutaneous pouch was created. Catheter segments of 1 cm length pre-incubated with MRSA MW2 suspension (6×10^3 CFUs/mL) for 4 hrs, were placed in the subcutaneous space and the wounds were closed with suture thereafter. As uninfected control, one group of mice were surgically operated and a sterile catheter segment was placed in the cavity. At 24 hours post-catheter implantation, mice were treated with P128 (800 μg per animal, subcutaneously) or with the placebo (saline). Treatments were given thrice a day at 2 hr intervals for three days and 1 hr after the last treatment, the catheters were removed, biofilms were harvested and CFUs recovered were plated on culture media and enumerated. Catheters from a subset of animals were stained with 0.1% safranin, (which stains the bacteria) for 5 min.
For evaluation of synergy with daptomycin, mouse model of biofilm described above was used with few modifications. Eight-nine week old female BALB/c mice 25 g were rendered neutropenic with cyclophosphamide and were operated under ketamine-xylazine anesthesia. A 1-cm incision was made in the dorsal neck surface by aseptic technique and subcutaneous pouch was created. Catheter segments measuring 1 cm were placed in the subcutaneous space, and the wounds closed with suture. At 72 hours post-implantation. MRSA MW2 bacterial inoculum (2.1×10^7 CFU per animal) was injected subcutaneously onto the catheter. At 24 hrs post-challenge, animals were treated with either P128 (800 μg per animal, subcutaneous), or daptomycin (12.5 mg/kg, subcutaneous) or a combination of both. Daptomycin was given once every day for three days whereas P128 was administered thrice a day at 2 hr interval for three days. 1 hr after the last treatment, animals were euthanized and catheters were collected and recovered CFUs were enumerated.
Biofilms were also visualized by staining the catheters with 0.1% safranin.

S. epidermidis = test: MIC and checkerboard synergy (broth microdilution) on planktonic cells; assay type: cell-based, Staphylococcus epidermidis; conditions: Staphylococcus epidermidis
Experimental: Bacterial cultures at a final cell number of 5×10^5 CFU/mL was added to wells of 96-well microtiter plates (precoated with 0.5% BSA), containing two-fold dilutions of P128 and the second drug in cation adjusted Mueller Hinton Broth (CAMHB). The plates were incubated at 37° C. for 24 h and the individual MICs and the combination MICs were read. The fractional inhibitory concentration index (FICI) was determined using the following equation: FICI=(MIC of drug A in the combination/MIC of drug A alone)+(MIC of drug B in the combination/MIC of drug B alone). The combination was considered to be synergistic when the FICI was ≤0.5; additive when FICI was 0.5-1.0; indifferent when FICI was 1-4 and antagonistic when FICI≥4.
S. epidermidis culture at a final cell number of 5×10^5 CFU/mL was added to wells of 96-well microtiter plates (precoated with 0.5% BSA), containing two-fold dilutions of P128 and either Daptomycin or Oxacillin in cation adjusted Mueller Hinton Broth (CAMHB). CAMHB was supplemented with 50 µg/mL Ca^++ for daptomycin assay. The plates were incubated at 37° C. for 24 h and the individual MICs and the combination MICs were read. The fractional inhibitory concentration index (FICI) was determined using the following equation: FICI=(MIC of drug A in the combination/MIC of drug A alone)+(MIC of drug B in the combination/MIC of drug B alone). The combination was considered to be synergistic when the FICI was ≤0.5; additive when FICI was between 0.5-1.0; indifferent when FICI was between 1-4 and antagonistic when FICI was ≥4. The experiments were performed in triplicate and repeated twice.

S. aureus USA300 = test: Mouse model of S. aureus with mucin-enhanced virulence, survival; assay type: in vivo, BALB/c mice; conditions: S. aureus USA300 10^9 CFU ip, P128 […] ip, Vancomycin 27.5 mg/kg sc 2 doses, or both
Experimental: Eight to nine weeks old female BALB/c mice were challenged intraperitoneally with 10^9 CFU of S. aureus USA300. At 2 hours post-infection, animals were treated with either P128 at 2.5 mg/kg intraperitoneally, or vancomycin at 27.5 mg/kg subcutaneously, or combination of both. Groups treated with only vancomycin or combination of P128 and vancomycin were administered with a second dose of vancomycin at 12 hours after the first treatment. At 72 hours post-infection, P128 and vancomycin yielded 56 and 44% survival, respectively.

Structure (SMILES)	CFU/mL, generation of persisters ([1]; B9377, 0 h)	CFU/mL, confirmation of persisters (regrown, re-exposed) ([1]; B9377, 0 h)	CFU/mL, generation of persisters ([1]; B9377, 4 h)	CFU/mL, confirmation of persisters (regrown, re-exposed) ([1]; B9377, 4 h)	CFU/mL, generation of persisters ([1]; B9377, 8 h)	CFU/mL, confirmation of persisters (regrown, re-exposed) ([1]; B9377, 8 h)	CFU/mL, generation of persisters ([1]; B9377, 24 h)	CFU/mL, confirmation of persisters (regrown, re-exposed) ([1]; B9377, 24 h)	CFU/mL, generation of persisters ([1]; BK18, 0 h)	CFU/mL, confirmation of persisters (regrown, re-exposed) ([1]; BK18, 0 h)	CFU/mL, generation of persisters ([1]; BK18, 4 h)	CFU/mL, confirmation of persisters (regrown, re-exposed) ([1]; BK18, 4 h)	CFU/mL, generation of persisters ([1]; BK18, 8 h)	CFU/mL, confirmation of persisters (regrown, re-exposed) ([1]; BK18, 8 h)	CFU/mL, generation of persisters ([1]; BK18, 24 h)	CFU/mL, confirmation of persisters (regrown, re-exposed) ([1]; BK18, 24 h)	Drop in CFU at the end of 4 h treatment [1]	CFU/mL, generation of persisters ([2]; B9470, 0 h)	CFU/mL, confirmation of persisters (regrown, re-exposed) ([2]; B9470, 0 h)	CFU/mL, generation of persisters ([2]; B9470, 2 h)	further results
CCCCCCCCCC(=O)N[C@@H](Cc1c[nH]c2ccccc12)C(=O)N[C@H](CC(N)=O)C(=O)N[C@@H](CC(=O)O)C(=O)N[C@@H]1C(=O)NCC(=O)N[C@@H](CCCN)C(=O)N[C@@H](CC(=O)O)C(=O)N[C@H](C)C(=O)N[C@@H](CC(=O)O)C(=O)NCC(=O)N[C@H](CO)C(=O)N[C@@H]([C@H](C)CC(=O)O)C(=O)N[C@@H](CC(=O)c2ccccc2N)C(=O)O[C@@H]1C [Daptomycin, daptomycin]	2.5 × 10^8 CFU/mL	2.5 × 10^8 CFU/mL	4 × 10^3 CFU/mL	6 × 10^3 CFU/mL	1 × 10^3 CFU/mL	1 × 10^3 CFU/mL	5.5 × 10^3 CFU/mL	9 × 10^2 CFU/mL	2 × 10^8 CFU/mL	1 × 10^8 CFU/mL	3 × 10^3 CFU/mL	3 × 10^2 CFU/mL	1 × 10^3 CFU/mL	1 × 10^2 CFU/mL	5 × 10^3 CFU/mL	6 × 10^2 CFU/mL	5 log	3.2 × 10^7 CFU/mL	1 × 10^7 CFU/mL	1 × 10^7 CFU/mL	CFU/mL, confirmation of persisters (regrown, re-exposed) ([2]; B9470, 2 h): 9 × 10^4 CFU/mL; CFU/mL, generation of persisters ([2]; B9470, 4 h): 2.3 × 10^6 CFU/mL; CFU/mL, confirmation of persisters (regrown, re-exposed) ([2]; B9470, 4 h): 4 × 10^3 CFU/mL; CFU/mL, generation of persisters ([2]; B9470, 8 h): 5 × 10^5 CFU/mL; CFU/mL, confirmation of persisters (regrown, re-exposed) ([2]; B9470, 8 h): 6 × 10^2 CFU/mL; CFU/mL, generation of persisters ([2]; B9470, 24 h): 3 × 10^6 CFU/mL; CFU/mL, confirmation of persisters (regrown, re-exposed) ([2]; B9470, 24 h): 5 × 10^3 CFU/mL; CFU recovered from catheter biofilm, individual animals [3]: 4.9 CFU (Log10)/ml and 2.6 CFU (Log10)/ml and 3.0 CFU (Log10)/ml and 2.7 CFU (Log10)/ml; MIC (S. epidermidis; ATCC12228, S. epidermidis ATCC 12228, read-out: MIC (drug alone)): 1 µg/mL; MIC (S. epidermidis; S. epidermidis B9467, read-out: MIC (drug alone)): 2 µg/mL; MIC (S. epidermidis; S. epidermidis B9468, read-out: MIC (drug alone)): 0.5 µg/mL; MIC (S. epidermidis; S. epidermidis B9471, read-out: MIC (drug alone)): 2 µg/mL; MIC (S. epidermidis; S. epidermidis B9472, read-out: MIC (drug alone)): 2 µg/mL; MIC (S. epidermidis; S. epidermidis strains of Tables 7 and 8, read-out: MIC over the strains): 0.5 to 2 µg/mL
CN[C@H](CC(C)C)C(=O)N[C@H]1C(=O)N[C@@H](CC(N)=O)C(=O)N[C@H]2C(=O)N[C@H]3C(=O)N[C@H](C(=O)N[C@H](C(=O)O)c4cc(O)cc(O)c4-c4cc3ccc4O)[C@H](O)c3ccc(c(Cl)c3)Oc3cc2cc(c3O[C@@H]2O[C@H](CO)[C@@H](O)[C@H](O)[C@H]2O[C@H]2C[C@](C)(N)[C@H](O)[C@H](C)O2)Oc2ccc(cc2Cl)[C@H]1O [Vancomycin, vancomycin]	2.5 × 10^8 CFU/mL	1.5 × 10^8 CFU/mL	8 × 10^6 CFU/mL	2 × 10^6 CFU/mL	1.9 × 10^6 CFU/mL	2 × 10^6 CFU/mL	1.1 × 10^5 CFU/mL	8 × 10^5 CFU/mL	2 × 10^8 CFU/mL	1 × 10^8 CFU/mL	1 × 10^7 CFU/mL	2.5 × 10^5 CFU/mL	2 × 10^6 CFU/mL	1 × 10^5 CFU/mL	4 × 10^5 CFU/mL	1 × 10^5 CFU/mL	Approximately two log drop in CFU	3.2 × 10^7 CFU/mL	2 × 10^7 CFU/mL	1 × 10^6 CFU/mL	CFU/mL, confirmation of persisters (regrown, re-exposed) ([2]; B9470, 2 h): 1 × 10^5 CFU/mL; CFU/mL, generation of persisters ([2]; B9470, 4 h): 3 × 10^5 CFU/mL; CFU/mL, confirmation of persisters (regrown, re-exposed) ([2]; B9470, 4 h): 6 × 10^4 CFU/mL; CFU/mL, generation of persisters ([2]; B9470, 8 h): 9 × 10^3 CFU/mL; CFU/mL, confirmation of persisters (regrown, re-exposed) ([2]; B9470, 8 h): 1.5 × 10^4 CFU/mL; CFU/mL, generation of persisters ([2]; B9470, 24 h): 3 × 10^4 CFU/mL; CFU/mL, confirmation of persisters (regrown, re-exposed) ([2]; B9470, 24 h): 5 × 10^3 CFU/mL; Survival at 72 h post infection (S. aureus USA300): 43%; Survival at 72 h post infection (S. aureus USA300; listed as vancomycin): 44%

From US20190282673A1, “STAPHTAME ACTIVITY ON BIOFILMS” (priority 2016, published 2019)
